In brackets after ≈: the same amount, converted by molar mass.
Experiments:
[1] = tested on: primary human dermal fibroblasts (HDFs); test: MTS cytotoxicity assay
Method: MTS ((3-(4,5-dimethylthiazol-2-yl)-5-(3-carboxymethoxyphenyl)-2-(4-sulfophenyl)-2H-tetrazolium)) assay and high content analysis (HCA) were performed to elucidate the effect of various polymers on metabolic activity and morphological parameters of cultured human dermal fibroblasts (hDF), respectively as described previously. The antineoplastic agent, nocodazole (5 μg/ml), served as the […] control whereas cells treated with PBS served as positive control. The average values from three independent triplicate experiments are reported. Cells were cultured in 96-well plates and scanned (16 randomly selected fields/well) using an automated microscope IN Cell Analyzer 2200 (GE Healthcare). The multi-parametric cytotoxicity bio-application module of the IN Cell Investigator software (GE Healthcare) was used in quantitative estimations and morphotypic analysis of acquired images, which were automatically converted into color-coded heatmaps using Spotrfire® software.
Human dermal fibroblast cells were seeded in 96-well plates (2×10^3 cells/well) and incubated for 24 h at 37° C. and 5% CO2. Cells were then treated with various concentrations of polymers or peptides (62.5 μg/ml-1 mg/ml. At the end of the treatment period (after 24 h), 20 or 50 μl of MTS tetrazolium solution was added into 96-well or 12-well plates and further incubated for 2 h at 37° C. Subsequently, the absorbance was measured at 490 nm using a microplate reader (Infinite M200 Pro, Tecan, Switzerland) and the relative cell viability was calculated. Each treatment was performed in two triplicates and reported.
The cytotoxicity of peptides and polymers were determined using CellTier 96® Aqueous One solution cell proliferation assay kit according to the manufacturer's instruction (Promega Corporation, Madison, Wis.). This assay evaluates mitochondrial function by measuring ability of viable cells to reduce MTS ((3-(4,5-dimethylthiazol-2-yl)-5-(3-carboxymethoxyphenyl)-2-(4-sulfophenyl)-2H-tetrazolium)) into a quantifiable […] formazan product. HDFs were seeded in 96-well plates (2×10^3 cells/well) and incubated for 24 h at 37° C. and 5% CO2. Cells were then treated with a concentrated stock solution of polymers (final concentration 62.5-2000 μg/ml in the well) or peptides (final concentration 4-1000 μg/ml in the well). After 24 h, 20 μl of MTS tetrazolium solution was added into 96-well well plates and further incubated for 2 h at 37° C. Subsequently, the absorbance was measured at 490 nm using a microplate reader (Infinite M200 Pro, Tecan, Switzerland) and the relative cell viability was calculated relative to untreated control (10 mM PBS, pH 7.0). Each treatment was performed in two triplicates and reported.

C. parapsilosis = details: C. parpsilosis (n = 9), Table 5
Method: (§1) MIC of cationic polymers and polypeptide were tested in accordance with the Clinical and Laboratory Standards Institute (CLSI) guidelines against a panel of antibiotic-susceptible/-resistant bacteria, yeasts and fungal strains. Bacterial and yeast strains were cultured on tryptic soy agar (TSA) and Sabaroud dextrose agar (SDA) plates (Neogen Corporation, MI, USA) overnight respectively. Inocula in Mueller-Hinton broth (MHB) for bacteria and SD broth for C. albicans (Beckton Dickinson, MD, USA) were prepared at 0.5 McFarland. The suspensions were then diluted to a final concentration of 10^5 CFU/ml in a 96-well microtitre plate (SPL Life Sciences Co., Ltd, Korea). […] The antimicrobial activities were compared with topical antiseptic agents, BAK and CHX. A similar protocol was used to determine the MIC of εPL against antibiotic-resistant pathogens. MIC of the polymers and polypeptides against Fusarium strains was determined in full strength RPMI-1640 buffer. Fungal spores were recovered from a 5-day old culture on a potato dextrose agar and diluted to a concentration of 10^5 spores/ml in 0.9% saline solution. A further 50-fold dilution was done in RPMI-1640 buffer and 100 μl of the inoculum was added to 96 well plates containing an equal volume of test peptides at 2-fold serial dilutions. 200 μl of inoculum without any additives and buffer alone served as positive and negative controls, respectively. The plate was then incubated at 30° C. for 48 h. The absorbance value was measured at 600 nm as before and the lowest concentration of the peptide which inhibited 90% growth was reported. All MIC determinations were performed in duplicates.
(§2) MICs of polymers/antibiotics were determined using the microdilution method in 96 well microtitre plates (SPL Life Sciences Co., Ltd, Korea), following the guidelines of Clinical and Laboratory Standards Institute (CLSI) document M100-S18. Briefly, polymers (1-512 μg/ml) or antibiotics were dissolved in appropriate media (Mueller Hinton broth, MHB for bacteria; Sabaroud's Dextrose (SD) broth for yeasts and RPMI buffer for Fusarium strains) and 100 μl of this was then mixed with an equal volume of microbial inoculum (OD600=˜0.08) in the same media and shaken in a closed incubator.

[2] = tested on: Vancomycin-resistant Enterococcus (VRE); details: VRE (n = 21 strains), Table 5
Method: as §1, §2

C. albicans = tested on: C. albicans
Method: as §1, §2

C. tropicalis = C. tropicalis (n = 9), Table 5
Method: as §1, §2

B. cereus ATCC 11778 = details: B. cereus ATCC 11778, Table 5
Method: as §1, §2

CC[C@H](C)[C@H](NC(=O)CN)C(=O)NCC(=O)N[C@@H](C)C(=O)N[C@H](C(=O)N[C@@H](CC(C)C)C(=O)N[C@@H](CCCCN)C(=O)N[C@H](C(=O)N[C@@H](CC(C)C)C(=O)N[C@H](C(=O)N[C@H](C(=O)NCC(=O)N[C@@H](CC(C)C)C(=O)N1CCC[C@H]1C(=O)N[C@@H](C)C(=O)N[C@@H](CC(C)C)C(=O)N[C@H](C(=O)N[C@@H](CO)C(=O)N[C@@H](Cc1c[nH]c2ccccc12)C(=O)N[C@H](C(=O)N[C@@H](CCCCN)C(=O)N[C@@H](CCCNC(=N)N)C(=O)N[C@@H](CCCCN)C(=O)N[C@@H](CCCNC(=N)N)C(=O)N[C@@H](CCC(N)=O)C(=O)N[C@@H](CCC(N)=O)C(N)=O)[C@@H](C)CC)[C@@H](C)CC)[C@@H](C)O)[C@@H](C)O)C(C)C)C(C)C [Melittin]
Cytotoxicity (in μg/ml) for HDFs ([1]; Concentration at which complete cytotoxicity was observed in MTS and HCA): 16 µg/mL | Cytotoxicity for primary human dermal fibroblasts ([1]; Table 5): 16 µg/mL | MIC (C. parapsilosis): 16 to 64 µg/mL | MIC90 ([2]; 90% of strains susceptible): (MIC90 = 8)^2 μg/ml | MIC ([2]; range): 0.5 to 8 µg/mL | MIC (C. albicans; C. albicans (n = 5), Table 5): 2 to 4 µg/mL | MIC against C. albicans (n = 5) (C. albicans; Table 4, range over 5 strains): 2 to 4 µg/mL | MIC (C. tropicalis): 8 to 64 µg/mL | MIC (B. cereus ATCC 11778): 8 µg/mL (≈ 2.81 µM)

Reference: patent US11396531B2, “Antimicrobial peptides comprising epsilon lysine residues” (priority 2016, dated 2022)
